Among the data in ChEMBL document CHEMBL5131425, “Microbial transformation and inhibitory effect assessment of uvaol derivates against LPS and HMGB1 induced NO production in RAW264.7 macrophages” (Bioorg Med Chem Lett, 2022) are viability and IC50 values, retold here.

Structures are written as SMILES.

Test system in one data set: not listed separately
Briefly: Cytotoxicity against mouse RAW264.7 cells assessed as cell viability at 50 uM. The note with it: read-out: Activity. Format: toxicity, cell-based.
On to `C[C@H]1[C@H](C)[C@@H](O)C[C@@]23CC[C@@]4(C)[C@@]5(C)[C@H](C=C[C@]4(OC2)[C@H]13)[C@@]1(C)CC[C@H](O)C(C)(C)[C@@H]1C[C@@H]5O`, for which the viability at 50 µM is 94.2%.
On the same count and under the same terms, then `C[C@H]1[C@H](C)[C@@H](O)C[C@]2(CO)CC[C@]3(C)C(=CC[C@@H]4[C@@]5(C)CC[C@H](O)C(C)(C)[C@@H]5C[C@H](O)[C@]43C)[C@H]12`, with 94.2%.
Same read-out and setting: the result for `C[C@@H]1[C@H]2C3=CC[C@@H]4[C@@]5(C)CC[C@H](O)[C@@](C)(CO)[C@@H]5CC[C@@]4(C)[C@]3(C)CC[C@@]2(CO)[C@@H](O)C[C@H]1C(=O)O` reads 118%; that for `C[C@H]1[C@H](C(=O)O)[C@@H](O)C[C@]2(CO)CC[C@]3(C)C(=CC[C@@H]4[C@@]5(C)CC[C@H](O)[C@](C)(CO)[C@@H]5CC[C@]43C)[C@H]12`, 112%; that for `C[C@H]1[C@H](C(=O)O)[C@@H](O)C[C@]2(CO)CC[C@]3(C)C(=CC[C@@H]4[C@@]5(C)CC[C@H](O)[C@@](C)(CO)[C@@H]5CC[C@]43C)[C@H]12`, 124%.
In the case of `C[C@@H]1[C@H]2C3=CC[C@@H]4[C@@]5(C)CC[C@H](O)[C@](C)(CO)[C@@H]5CC[C@@]4(C)[C@]3(C)CC[C@@]2(CO)[C@@H](O)C[C@H]1C(=O)O`, the viability at 50 µM came to 117%.
`CC1(C)[C@@H](OC(=O)CCC(=O)O)CC[C@]2(C)[C@H]3C(=O)C=C4[C@@H]5C[C@@](C)(C(=O)O)CC[C@]5(C)CC[C@@]4(C)[C@]3(C)CC[C@@H]12` [CARBENOXOLONE]: the viability at 50 µM was 88.5%.
Same read-out and setting: then `C[C@H]1[C@H](C)CC[C@]2(CO)CC[C@]3(C)C(=CC[C@@H]4[C@@]5(C)CC[C@H](O)C(C)(C)[C@@H]5CC[C@]43C)[C@H]12` [UVAOL], with 103%.

The next data set relates to RAW264.7. Briefly: Anti-inflammatory activity in mouse RAW264.7 cells assessed as inhibition of HMGB1-induced NO production.
Conditions: not given
The format is functional, cell-based.
What is called IC50 is the concentration needed to halve the response being measured. As for `C[C@H]1[C@H](C)[C@@H](O)C[C@@]23CC[C@@]4(C)[C@@]5(C)[C@H](C=C[C@]4(OC2)[C@H]13)[C@@]1(C)CC[C@H](O)C(C)(C)[C@@H]1C[C@@H]5O`, the IC50 was determined as 47.2 µM.
The same measure, in the same setting: then `C[C@H]1[C@H](C)[C@@H](O)C[C@]2(CO)CC[C@]3(C)C(=CC[C@@H]4[C@@]5(C)CC[C@H](O)C(C)(C)[C@@H]5C[C@H](O)[C@]43C)[C@H]12`, with > 100 µM; and `C[C@@H]1[C@H]2C3=CC[C@@H]4[C@@]5(C)CC[C@H](O)[C@@](C)(CO)[C@@H]5CC[C@@]4(C)[C@]3(C)CC[C@@]2(CO)[C@@H](O)C[C@H]1C(=O)O`, with 60.4 µM.
Same read-out and setting: the result for `C[C@H]1[C@H](C(=O)O)[C@@H](O)C[C@]2(CO)CC[C@]3(C)C(=CC[C@@H]4[C@@]5(C)CC[C@H](O)[C@](C)(CO)[C@@H]5CC[C@]43C)[C@H]12` reads 91.6 µM.
Same read-out and setting: the result for `C[C@H]1[C@H](C(=O)O)[C@@H](O)C[C@]2(CO)CC[C@]3(C)C(=CC[C@@H]4[C@@]5(C)CC[C@H](O)[C@@](C)(CO)[C@@H]5CC[C@]43C)[C@H]12` reads > 100 µM; that for `C[C@@H]1[C@H]2C3=CC[C@@H]4[C@@]5(C)CC[C@H](O)[C@](C)(CO)[C@@H]5CC[C@@]4(C)[C@]3(C)CC[C@@]2(CO)[C@@H](O)C[C@H]1C(=O)O`, 100 µM; that for `CC1(C)[C@@H](OC(=O)CCC(=O)O)CC[C@]2(C)[C@H]3C(=O)C=C4[C@@H]5C[C@@](C)(C(=O)O)CC[C@]5(C)CC[C@@]4(C)[C@]3(C)CC[C@@H]12` [CARBENOXOLONE], 7.62 µM.
For `C[C@H]1[C@H](C)CC[C@]2(CO)CC[C@]3(C)C(=CC[C@@H]4[C@@]5(C)CC[C@H](O)C(C)(C)[C@@H]5CC[C@]43C)[C@H]12` [UVAOL], the IC50 is > 100 µM.

For a further data set, the system named is RAW264.7. Put plainly: Anti-inflammatory activity in mouse RAW264.7 cells assessed as inhibition of LPS-induced NO production. The format is functional, cell-based.
Conditions: not given
In the case of `C[C@H]1[C@H](C)[C@@H](O)C[C@@]23CC[C@@]4(C)[C@@]5(C)[C@H](C=C[C@]4(OC2)[C@H]13)[C@@]1(C)CC[C@H](O)C(C)(C)[C@@H]1C[C@@H]5O`, the IC50 came to 4.8 µM.
On the same count and under the same terms, then `C[C@H]1[C@H](C)[C@@H](O)C[C@]2(CO)CC[C@]3(C)C(=CC[C@@H]4[C@@]5(C)CC[C@H](O)C(C)(C)[C@@H]5C[C@H](O)[C@]43C)[C@H]12`, with 2.22 µM.
Still for that read-out and setting: the result for `C[C@@H]1[C@H]2C3=CC[C@@H]4[C@@]5(C)CC[C@H](O)[C@@](C)(CO)[C@@H]5CC[C@@]4(C)[C@]3(C)CC[C@@]2(CO)[C@@H](O)C[C@H]1C(=O)O` reads 29.9 µM.
The same measure, in the same setting: the result for `C[C@H]1[C@H](C(=O)O)[C@@H](O)C[C@]2(CO)CC[C@]3(C)C(=CC[C@@H]4[C@@]5(C)CC[C@H](O)[C@](C)(CO)[C@@H]5CC[C@]43C)[C@H]12` reads 0.55 µM; that for `C[C@H]1[C@H](C(=O)O)[C@@H](O)C[C@]2(CO)CC[C@]3(C)C(=CC[C@@H]4[C@@]5(C)CC[C@H](O)[C@@](C)(CO)[C@@H]5CC[C@]43C)[C@H]12`, > 100 µM; that for `C[C@@H]1[C@H]2C3=CC[C@@H]4[C@@]5(C)CC[C@H](O)[C@](C)(CO)[C@@H]5CC[C@@]4(C)[C@]3(C)CC[C@@]2(CO)[C@@H](O)C[C@H]1C(=O)O`, > 100 µM.
On to `CC1(C)[C@@H](OC(=O)CCC(=O)O)CC[C@]2(C)[C@H]3C(=O)C=C4[C@@H]5C[C@@](C)(C(=O)O)CC[C@]5(C)CC[C@@]4(C)[C@]3(C)CC[C@@H]12` [CARBENOXOLONE], for which the IC50 is 6.64 µM.
Same read-out and setting: then `C[C@H]1[C@H](C)CC[C@]2(CO)CC[C@]3(C)C(=CC[C@@H]4[C@@]5(C)CC[C@H](O)C(C)(C)[C@@H]5CC[C@]43C)[C@H]12` [UVAOL], with > 100 µM.
